The source of these data is patent US8815858B2, “Heterocyclic flaviviridae virus inhibitors” (Gilead Sciences, Inc., priority 2010, dated 2014).

The test relates to HCV replicon (1B Replicon). The experiment in a line: HCV replicon assay, inhibition of viral replication (luciferase). The format is cell-based. To be noted: Hepatitis C virus, 72 h; 10 uM compound; human hepatoma Huh-7 HCV replicon cells; 3 days incubation; luminescence; read-out: % inh at 10 uM (1B Replicon). The protocol: The anti-HCV activity of the compounds of this invention was tested in a human hepatoma Huh-7 cell line harboring a HCV replicon. The assay comprised the following steps:
Serial dilution was performed in 100% DMSO in a 384-well plate. A solution containing a compound at 225-fold concentration of the starting final serial dilution concentration was prepared in 100% DMSO and 15 uL added to the pre-specified wells in column 3 or 13 of a polypropylene 384-well plate. The rest of the 384-well plate was filled with 10 uL 100% DMSO except for columns 23 and 24, where 10 uL of 500 uM a HCV protease inhibitor (ITMN-191) in 100% DMSO was added. The HCV protease inhibitor was used a control of 100% inhibition of HCV replication. The plate was then placed on a Biomek FX Workstation to start the serial dilution. The serial dilution was performed for ten cycles of 3-fold dilution from column 3 to 12 or from column 13 to 22.
To each well of a black polypropylene 384-well plate, 90 μL of cell media containing 1600 suspended Huh-7 HCV replicon cells was added with a Biotek uFlow Workstation. A volume of 0.4 μL of the compound solution was transferred from the serial dilution plate to the cell culture plate on a Biomek FX Workstation. The DMSO concentration in the final assay condition was 0.44%. The plates were incubated for 3 days at 37° C. with 5% CO2 and 85% humidity.
b) Assessment of inhibition of viral replication: The calcein-PBS solution in the 384-well cell culture plate was aspirated with a Biotek EL405 plate-washer. A volume of 20 μL of Dual-Glo luciferase buffer (Promega, Dual-Glo Luciferase Assay Reagent, cat. #E298B) was added to each well of the plate with a Biotek uFlow Workstation. The plate was incubated for 10 minutes at room temperature. A volume of 20 μL of a solution containing 1:100 mixture of Dual-Glo Stop & Glo substrate (Promega, Dual-Glo Luciferase Assay Reagent, cat. #E313B) and Dual-Glo Stop & Glo buffer (Promega, Dual-Glo Luciferase Assay Reagent, cat. #E314B) was then added to each well of the plate with a Biotek uFlow Workstation. The plate was incubated at room temperature for 10 minutes before the luminescence signal was measured with a Perkin Elmer Envision Plate Reader.
The percent cytotoxicity was determined by calcein AM conversion to fluorescent product. The average fluorescent signal from the DMSO control wells were defined as 100% nontoxic. The individual fluorescent signal from testing compound treated well was divided by the average signal from DMSO control wells and then multiplied by 100% to get the percent viability. The percent anti-HCV replication activity was determined by the luminescence signal from the testing well compared to DMSO controls wells. The background signal was determined by the average luminescence signal from the HCV protease inhibitor treated wells and was subtracted from the signal from the testing wells as well as the DMSO control wells. Following 3-fold serial dilutions, the EC50 and CC50 values were calculated by fitting % inhibition at each concentration to the following equation: % inhibition=100%/[(EC50/[I])^b+1]
% inhibition values at any specific concentration, for example 10 μM, can also be derived from the formula above.
For orientation: In antiviral work, replicon cells carry a viral genome segment that copies itself.

For `Fc1ccccc1-c1cc2ncn(Cc3cc(-c4ccc(C(F)(F)F)cc4C(F)(F)F)no3)cc-2n1`, the inhibition at 10 µM was 99.6%. With `Fc1ccccc1-c1cc2ncn(Cc3nnc(-c4ccc(C(F)(F)F)cc4C(F)(F)F)s3)cc-2n1`, the inhibition at 10 µM worked out at 100%. To `COc1ccc(-c2nnc(Cn3cnc4cc(-c5ccccc5F)nc-4c3)s2)c(C(F)(F)F)c1` belongs 100%. Consider `Fc1ccccc1-c1cc2ccn(Cc3cc(-c4ccc(C(F)(F)F)cc4C(F)(F)F)no3)nc-2n1`, for which the inhibition at 10 µM turned out to be 77%. As to `Fc1ccccc1-c1cc2ncn(Cc3ccc(-c4ccc(C(F)(F)F)cc4C(F)(F)F)nn3)cc-2n1`, the inhibition at 10 µM was found to be 100%. Take `COc1ccc(-c2nnc(Cn3ccc4cc(-c5ccccc5F)nc-4n3)s2)c(C(F)(F)F)c1`: the inhibition at 10 µM is 98.1%. To `Fc1ccccc1-c1cc2ccn(Cc3ccc(-c4ccc(C(F)(F)F)cc4C(F)(F)F)nn3)nc-2n1` belongs 97.4%. To `COc1ccc(-c2nnc(Cn3cnc4c(Br)c(-c5ccccc5F)nc-4c3)s2)c(C(F)(F)F)c1` belongs 100%; to `COc1ccc(-c2nnc(Cn3cnc4c(C#Cc5cncnc5)c(-c5ccccc5F)nc-4c3)s2)c(C(F)(F)F)c1`, 97.8%. To `COc1ccc(-c2nnc(Cn3cnc4c(Cl)c(-c5ccccc5F)nc-4c3)s2)c(C(F)(F)F)c1` belongs 100%; to `COc1ccc(-c2nnc(Cn3cnc4c(C(N)=O)c(-c5ccccc5F)nc-4c3)s2)c(C(F)(F)F)c1`, 36.6%. Turning to `COc1ccc(-c2nnc(Cn3cnc4c(C#N)c(-c5ccccc5F)nc-4c3)s2)c(C(F)(F)F)c1`, the inhibition at 10 µM turned out to be 99.9%.
